# Experimental data reported in the NIST ThermoML archive (doi:10.1021/je060271a).
# “And” between values parts separate entries of the source, which are not always exact repeats. Identical values can stand only once. ± gives the expanded uncertainty stated by the source.
# Settings: 303.15 K, Liquid, Vibrating tube method
compound,measurement,setting,value
CCCCCC(=O)OCC(COC(=O)CCCCC)(COC(=O)CCCCC)COC(=O)CCCCC [pentaerythritol tetrahexanoate],mass density,8586.4 kPa,993.8 ± 1.2 kg/m3
same,mass density,8609.7 kPa,993.8 ± 1.2 kg/m3
same,mass density,8636.8 kPa,993.8 ± 1.2 kg/m3
same,mass density,8659.9 kPa,993.9 ± 1.2 kg/m3
same,mass density,8683.2 kPa,993.9 ± 1.2 kg/m3
same,mass density,8710.9 kPa,993.9 ± 1.2 kg/m3
same,mass density,8734.7 kPa,993.9 ± 1.2 kg/m3
same,mass density,8758.2 kPa,993.9 ± 1.2 kg/m3
same,mass density,8782.3 kPa,993.9 ± 1.2 kg/m3
same,mass density,8806.3 kPa,994 ± 1.2 kg/m3
same,mass density,8834.9 kPa,994 ± 1.2 kg/m3
same,mass density,8858 kPa,993.9 ± 1.2 kg/m3
same,mass density,8886.3 kPa,994 ± 1.2 kg/m3
same,mass density,8910.4 kPa,994 ± 1.2 kg/m3
same,mass density,8934.4 kPa,994 ± 1.2 kg/m3
same,mass density,8958.2 kPa,994 ± 1.2 kg/m3
same,mass density,8987 kPa,993.9 ± 1.2 kg/m3
same,mass density,9010.8 kPa,994.1 ± 1.2 kg/m3
same,mass density,9035.1 kPa,994.1 ± 1.2 kg/m3
same,mass density,9064.4 kPa,994.1 ± 1.2 kg/m3
same,mass density,9088.5 kPa,994.1 ± 1.2 kg/m3
same,mass density,9118.9 kPa,994.2 ± 1.2 kg/m3
same,mass density,9143 kPa,994.1 ± 1.2 kg/m3
same,mass density,9168.2 kPa,994.3 ± 1.2 kg/m3
same,mass density,9192.8 kPa,994.1 ± 1.2 kg/m3
same,mass density,9222.6 kPa,994.1 ± 1.2 kg/m3
same,mass density,9247.5 kPa,994.2 ± 1.2 kg/m3
same,mass density,9272.5 kPa,994.3 ± 1.2 kg/m3
same,mass density,9301.8 kPa,994.2 ± 1.2 kg/m3
same,mass density,9327.6 kPa,994.2 ± 1.2 kg/m3
same,mass density,9352.8 kPa,994.4 ± 1.2 kg/m3
same,mass density,9378.4 kPa,994.3 ± 1.2 kg/m3
same,mass density,9409.1 kPa,994.3 ± 1.2 kg/m3
same,mass density,9434.6 kPa,994.3 ± 1.2 kg/m3
same,mass density,9461.4 kPa,994.4 ± 1.2 kg/m3
same,mass density,9492.2 kPa,994.3 ± 1.2 kg/m3
same,mass density,9517.5 kPa,994.3 ± 1.2 kg/m3
same,mass density,9543.4 kPa,994.4 ± 1.2 kg/m3
same,mass density,9574.4 kPa,994.4 ± 1.2 kg/m3
same,mass density,9600.4 kPa,994.5 ± 1.2 kg/m3
same,mass density,9627 kPa,994.4 ± 1.2 kg/m3
same,mass density,9658 kPa,994.6 ± 1.2 kg/m3
same,mass density,9684.2 kPa,994.6 ± 1.2 kg/m3
same,mass density,9710.4 kPa,994.5 ± 1.2 kg/m3
same,mass density,9742.2 kPa,994.4 ± 1.2 kg/m3
same,mass density,9768.8 kPa,994.5 ± 1.2 kg/m3
same,mass density,9796.2 kPa,994.6 ± 1.2 kg/m3
same,mass density,9828.9 kPa,994.6 ± 1.2 kg/m3
same,mass density,9855.9 kPa,994.7 ± 1.2 kg/m3
same,mass density,9882.5 kPa,994.6 ± 1.2 kg/m3
same,mass density,9909.3 kPa,994.6 ± 1.2 kg/m3
same,mass density,9941.9 kPa,994.6 ± 1.2 kg/m3
same,mass density,9968.9 kPa,994.7 ± 1.2 kg/m3
same,mass density,9997 kPa,994.7 ± 1.2 kg/m3
same,mass density,10030 kPa,994.7 ± 1.2 kg/m3
same,mass density,10057 kPa,994.7 ± 1.2 kg/m3
same,mass density,10085 kPa,994.7 ± 1.2 kg/m3
same,mass density,10118 kPa,994.7 ± 1.2 kg/m3
same,mass density,10146 kPa,994.8 ± 1.2 kg/m3
same,mass density,10174 kPa,994.8 ± 1.2 kg/m3
same,mass density,10202 kPa,994.8 ± 1.2 kg/m3
same,mass density,10236 kPa,994.8 ± 1.2 kg/m3
same,mass density,10264 kPa,994.8 ± 1.2 kg/m3
same,mass density,10297 kPa,994.8 ± 1.2 kg/m3
same,mass density,10325 kPa,994.9 ± 1.2 kg/m3
same,mass density,10354 kPa,994.8 ± 1.2 kg/m3
same,mass density,10383 kPa,994.8 ± 1.2 kg/m3
same,mass density,10417 kPa,994.9 ± 1.2 kg/m3
same,mass density,10445 kPa,994.9 ± 1.2 kg/m3
same,mass density,10474 kPa,995 ± 1.2 kg/m3
same,mass density,10508 kPa,994.9 ± 1.2 kg/m3
same,mass density,10537 kPa,994.9 ± 1.2 kg/m3
same,mass density,10573 kPa,995.1 ± 1.2 kg/m3
same,mass density,11095 kPa,995.5 ± 1.2 kg/m3
same,mass density,11124 kPa,995.3 ± 1.2 kg/m3
same,mass density,11154 kPa,995.4 ± 1.2 kg/m3
same,mass density,11188 kPa,995.3 ± 1.2 kg/m3
same,mass density,11217 kPa,995.4 ± 1.2 kg/m3
same,mass density,11246 kPa,995.5 ± 1.2 kg/m3
same,mass density,11280 kPa,995.5 ± 1.2 kg/m3
same,mass density,11309 kPa,995.4 ± 1.2 kg/m3
same,mass density,11338 kPa,995.5 ± 1.2 kg/m3
same,mass density,11372 kPa,995.5 ± 1.2 kg/m3
same,mass density,11399 kPa,995.6 ± 1.2 kg/m3
same,mass density,11427 kPa,995.6 ± 1.2 kg/m3
same,mass density,11649 kPa,995.6 ± 1.2 kg/m3
same,mass density,11671 kPa,995.7 ± 1.2 kg/m3
same,mass density,11694 kPa,995.7 ± 1.2 kg/m3
same,mass density,11712 kPa,995.7 ± 1.2 kg/m3
same,mass density,11728 kPa,995.6 ± 1.2 kg/m3
same,mass density,11744 kPa,995.7 ± 1.2 kg/m3
same,mass density,11761 kPa,995.7 ± 1.2 kg/m3
same,mass density,11774 kPa,995.7 ± 1.2 kg/m3
same,mass density,11800 kPa,995.8 ± 1.2 kg/m3
same,mass density,11835 kPa,995.8 ± 1.2 kg/m3
same,mass density,11840 kPa,995.9 ± 1.2 kg/m3
same,mass density,11846 kPa,995.8 ± 1.2 kg/m3
same,mass density,11853 kPa,995.9 ± 1.2 kg/m3
same,mass density,11865 kPa,995.8 ± 1.2 kg/m3
same,mass density,11879 kPa,995.9 ± 1.2 kg/m3
same,mass density,11887 kPa,995.8 ± 1.2 kg/m3
same,mass density,11892 kPa,995.9 ± 1.2 kg/m3
same,mass density,11903 kPa,995.8 ± 1.2 kg/m3
same,mass density,11916 kPa,995.8 ± 1.2 kg/m3
same,mass density,11919 kPa,995.9 ± 1.2 kg/m3
same,mass density,11920 kPa,995.9 ± 1.2 kg/m3 and 995.8 ± 1.2 kg/m3 and 995.7 ± 1.2 kg/m3
same,mass density,11921 kPa,995.9 ± 1.2 kg/m3
same,mass density,11922 kPa,995.8 ± 1.2 kg/m3 and 995.9 ± 1.2 kg/m3
same,mass density,11923 kPa,995.8 ± 1.2 kg/m3
same,mass density,12035 kPa,995.9 ± 1.2 kg/m3
same,mass density,12053 kPa,996 ± 1.2 kg/m3
same,mass density,12071 kPa,995.9 ± 1.2 kg/m3
same,mass density,12092 kPa,995.9 ± 1.2 kg/m3
same,mass density,12111 kPa,995.9 ± 1.2 kg/m3
same,mass density,12129 kPa,996 ± 1.2 kg/m3
same,mass density,12151 kPa,996.1 ± 1.2 kg/m3
same,mass density,12169 kPa,996 ± 1.2 kg/m3
same,mass density,12188 kPa,995.9 ± 1.2 kg/m3
same,mass density,12212 kPa,996 ± 1.2 kg/m3
same,mass density,12226 kPa,996.1 ± 1.2 kg/m3
same,mass density,12248 kPa,996 ± 1.2 kg/m3
same,mass density,12267 kPa,996.1 ± 1.2 kg/m3
same,mass density,12285 kPa,996.1 ± 1.2 kg/m3
same,mass density,12308 kPa,996.1 ± 1.2 kg/m3
same,mass density,12326 kPa,996.1 ± 1.2 kg/m3
same,mass density,12348 kPa,996.1 ± 1.2 kg/m3
same,mass density,12367 kPa,996.1 ± 1.2 kg/m3
same,mass density,12386 kPa,996.2 ± 1.2 kg/m3
same,mass density,12409 kPa,996.2 ± 1.2 kg/m3
same,mass density,12428 kPa,996.2 ± 1.2 kg/m3
same,mass density,12448 kPa,996.1 ± 1.2 kg/m3
same,mass density,12468 kPa,996.2 ± 1.2 kg/m3
same,mass density,12490 kPa,996.3 ± 1.2 kg/m3
same,mass density,12509 kPa,996.3 ± 1.2 kg/m3
same,mass density,12529 kPa,996.2 ± 1.2 kg/m3
same,mass density,12552 kPa,996.3 ± 1.2 kg/m3
same,mass density,12571 kPa,996.1 ± 1.2 kg/m3
same,mass density,12591 kPa,996.2 ± 1.2 kg/m3
same,mass density,12610 kPa,996.3 ± 1.2 kg/m3
same,mass density,12634 kPa,996.3 ± 1.2 kg/m3
same,mass density,12654 kPa,996.2 ± 1.2 kg/m3
same,mass density,12673 kPa,996.3 ± 1.2 kg/m3
same,mass density,12697 kPa,996.4 ± 1.2 kg/m3
same,mass density,12716 kPa,996.4 ± 1.2 kg/m3
same,mass density,12736 kPa,996.4 ± 1.2 kg/m3
